According to ChEMBL document CHEMBL1201862, “PubChem BioAssay data set” (2004):
Activity calls are given as the source filed them.

Key:
INS1 = assay: beta cell apoptosis inhibitors, cytokine rescue, dose response, luminescence, retest (AID 449756); type: functional, cell-based; details: Rattus norvegicus, INS1;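 also: cell death triggered by IL-1 beta plus TNF-alpha plus IFN-gamma mixture; protective hits raise ATP signal compared with cytokine alone wells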
Protein Wnt-3a = Protein Wnt-3a (Mus musculus, UniProt P27467); assay: Wnt3a-driven reporter signaling inhibition, dose response, selectivity assay for Gli-SUFU antagonist project, Wnt-LIGHT cells, luminescence (AID 651570); type: functional; details: read-out: IC50_Mean;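 also: Wnt-LIGHT reporter cells stimulated with conditioned medium from Wnt3a-producing cells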
Chain of Protein Wnt-3a (P27467 whole entry): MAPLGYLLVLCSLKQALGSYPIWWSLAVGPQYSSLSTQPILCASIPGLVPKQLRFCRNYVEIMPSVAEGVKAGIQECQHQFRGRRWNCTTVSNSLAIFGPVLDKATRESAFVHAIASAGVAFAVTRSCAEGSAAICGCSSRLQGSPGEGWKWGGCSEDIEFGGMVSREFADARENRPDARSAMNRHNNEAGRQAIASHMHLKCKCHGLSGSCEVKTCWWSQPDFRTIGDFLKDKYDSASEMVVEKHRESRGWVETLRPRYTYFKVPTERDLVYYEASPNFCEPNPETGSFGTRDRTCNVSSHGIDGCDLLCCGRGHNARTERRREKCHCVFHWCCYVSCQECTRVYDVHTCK

cells [1] = type: functional, cell-based
[2] = biological target: T1, Trace amine-associated receptor 1 (Homo sapiens, UniProt Q96RJ0); assay: Fluorescence-based cell-based high throughput dose response assay to identify agonists of the human trace amine associated receptor 1 (TAAR1).; type: functional
T1 sequence (Q96RJ0 whole entry): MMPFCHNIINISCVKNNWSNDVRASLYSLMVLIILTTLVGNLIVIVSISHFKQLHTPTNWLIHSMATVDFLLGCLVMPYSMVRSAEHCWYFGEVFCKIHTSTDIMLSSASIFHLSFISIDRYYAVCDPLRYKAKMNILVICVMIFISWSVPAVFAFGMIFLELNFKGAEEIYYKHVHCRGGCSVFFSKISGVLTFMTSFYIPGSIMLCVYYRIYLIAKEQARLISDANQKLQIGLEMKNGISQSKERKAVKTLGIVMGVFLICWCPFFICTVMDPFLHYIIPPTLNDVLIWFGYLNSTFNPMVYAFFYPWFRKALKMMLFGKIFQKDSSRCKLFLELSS

[3] = biological target: T1, Trace amine-associated receptor 1; assay: Counterscreen for agonists of the human trace amine associated receptor 1 (hTAAR1): Fluorescence-based cell-based high throughput dose response assay to identify hTAAR1 agonist that also desensitize TAAR1 receptor response.; type: functional
cells [4] = type: functional, cell-based; remark: listed apart in the source
Melanocortin receptor 4 = Melanocortin receptor 4 (Homo sapiens, UniProt P32245); assay: MC4R antagonist potency on cAMP, dose response, cell-based, TR-FRET, biased antagonists (AID 602298); type: functional;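 also: antagonist potency against agonist-stimulated cAMP production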
Chain of Melanocortin receptor 4 (P32245 whole entry): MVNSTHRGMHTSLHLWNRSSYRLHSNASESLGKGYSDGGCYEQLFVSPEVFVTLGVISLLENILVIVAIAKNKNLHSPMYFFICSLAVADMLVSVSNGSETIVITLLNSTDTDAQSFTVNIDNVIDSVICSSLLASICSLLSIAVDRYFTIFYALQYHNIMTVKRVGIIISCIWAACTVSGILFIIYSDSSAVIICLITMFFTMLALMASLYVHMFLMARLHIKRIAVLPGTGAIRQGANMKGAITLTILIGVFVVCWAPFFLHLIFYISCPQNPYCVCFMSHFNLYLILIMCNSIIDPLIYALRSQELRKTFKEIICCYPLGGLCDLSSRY

[5] = nonselective inhibitors of cellular cAMP signaling, dose response, counter-screen for MC4R biased antagonist project, cell-based, TR-FRET cAMP detection (AID 602305); type: functional;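 also: U2OS cells stimulated with forskolin near its EC80 as the cAMP inducer; potency is for inhibition of forskolin-stimulated cAMP signaling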
Vero = Vero cell cytotoxicity, cytotoxicity control for flavivirus capping enzyme inhibitors (AID 588742); type: functional; details: Chlorocebus sabaeus
[6] = biological target: T2, Apoptotic protease-activating factor 1 (Homo sapiens, UniProt O14727); type: functional
T2 sequence (O14727 whole entry): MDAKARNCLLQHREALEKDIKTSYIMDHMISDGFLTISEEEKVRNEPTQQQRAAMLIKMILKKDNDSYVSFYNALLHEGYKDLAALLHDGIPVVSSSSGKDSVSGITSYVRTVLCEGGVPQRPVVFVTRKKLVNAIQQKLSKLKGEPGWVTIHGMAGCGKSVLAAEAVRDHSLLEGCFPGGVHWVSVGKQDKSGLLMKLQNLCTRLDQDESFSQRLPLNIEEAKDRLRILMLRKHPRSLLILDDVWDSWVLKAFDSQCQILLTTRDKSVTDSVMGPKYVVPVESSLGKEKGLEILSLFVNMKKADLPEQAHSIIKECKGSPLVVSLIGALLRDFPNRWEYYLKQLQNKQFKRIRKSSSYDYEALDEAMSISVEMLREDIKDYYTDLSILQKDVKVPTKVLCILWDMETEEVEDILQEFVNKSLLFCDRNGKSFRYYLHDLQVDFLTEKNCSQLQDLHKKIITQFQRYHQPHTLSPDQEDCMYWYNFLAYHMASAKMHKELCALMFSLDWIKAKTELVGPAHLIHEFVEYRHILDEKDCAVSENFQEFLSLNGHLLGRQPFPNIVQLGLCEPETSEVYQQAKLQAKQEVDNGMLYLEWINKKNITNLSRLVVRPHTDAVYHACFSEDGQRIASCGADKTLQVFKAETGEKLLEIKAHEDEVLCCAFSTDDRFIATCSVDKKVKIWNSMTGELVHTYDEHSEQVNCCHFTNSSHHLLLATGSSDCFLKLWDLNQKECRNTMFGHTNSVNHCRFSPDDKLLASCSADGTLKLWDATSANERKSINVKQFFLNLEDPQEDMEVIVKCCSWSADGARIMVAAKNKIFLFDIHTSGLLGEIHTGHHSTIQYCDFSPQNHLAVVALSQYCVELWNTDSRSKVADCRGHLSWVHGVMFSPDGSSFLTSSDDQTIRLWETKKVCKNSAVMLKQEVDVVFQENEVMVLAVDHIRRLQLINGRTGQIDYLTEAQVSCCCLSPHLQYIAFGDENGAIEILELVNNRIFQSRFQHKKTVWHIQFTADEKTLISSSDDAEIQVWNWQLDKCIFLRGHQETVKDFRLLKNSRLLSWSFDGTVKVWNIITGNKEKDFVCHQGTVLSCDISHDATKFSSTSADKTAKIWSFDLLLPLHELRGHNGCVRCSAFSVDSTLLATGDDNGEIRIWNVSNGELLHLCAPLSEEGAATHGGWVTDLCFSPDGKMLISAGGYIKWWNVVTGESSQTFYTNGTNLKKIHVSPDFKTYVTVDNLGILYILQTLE

Aminopeptidase N = biological target: T3, Aminopeptidase N (Plasmodium falciparum FcB1/Columbia, UniProt O96935); assay: P. falciparum M1AAP inhibitors, biochemical, fluorogenic H-Leu-NHMec substrate, 1536-well (AID 1445); design: species or system Plasmodium falciparum 3D7, 3D7
T3 sequence (O96935 whole entry): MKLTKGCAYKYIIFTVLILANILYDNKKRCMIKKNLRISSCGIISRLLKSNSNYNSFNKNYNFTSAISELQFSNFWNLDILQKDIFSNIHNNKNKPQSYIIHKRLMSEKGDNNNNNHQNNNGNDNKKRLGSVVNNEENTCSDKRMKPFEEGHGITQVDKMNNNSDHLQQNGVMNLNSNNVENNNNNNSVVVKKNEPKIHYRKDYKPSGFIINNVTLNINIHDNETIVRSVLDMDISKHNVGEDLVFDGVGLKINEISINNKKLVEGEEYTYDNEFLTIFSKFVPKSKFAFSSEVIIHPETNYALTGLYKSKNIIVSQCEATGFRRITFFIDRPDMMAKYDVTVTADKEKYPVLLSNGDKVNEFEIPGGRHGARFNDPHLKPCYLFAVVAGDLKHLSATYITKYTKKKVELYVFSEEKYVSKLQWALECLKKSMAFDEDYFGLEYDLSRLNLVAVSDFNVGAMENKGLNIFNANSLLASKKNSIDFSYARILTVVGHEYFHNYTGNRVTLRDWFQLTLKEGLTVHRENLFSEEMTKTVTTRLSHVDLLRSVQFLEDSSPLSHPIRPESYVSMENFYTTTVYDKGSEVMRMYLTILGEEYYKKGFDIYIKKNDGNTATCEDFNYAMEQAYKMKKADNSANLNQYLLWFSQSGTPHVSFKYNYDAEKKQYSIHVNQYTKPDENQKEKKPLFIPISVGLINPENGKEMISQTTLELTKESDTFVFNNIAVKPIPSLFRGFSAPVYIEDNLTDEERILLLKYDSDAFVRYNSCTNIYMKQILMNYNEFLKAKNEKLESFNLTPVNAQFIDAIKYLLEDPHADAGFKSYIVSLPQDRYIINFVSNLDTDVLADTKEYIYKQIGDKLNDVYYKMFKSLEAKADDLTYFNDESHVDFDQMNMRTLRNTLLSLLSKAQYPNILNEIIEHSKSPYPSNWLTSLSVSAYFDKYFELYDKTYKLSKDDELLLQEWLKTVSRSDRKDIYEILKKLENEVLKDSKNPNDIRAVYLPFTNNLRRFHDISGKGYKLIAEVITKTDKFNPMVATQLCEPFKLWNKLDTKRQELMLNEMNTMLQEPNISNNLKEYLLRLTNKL

[7] = test system: Streptococcus sp. 'group A'; assay: growth inhibition of control SK(-) GAS strain, dose response, counter-screen for streptokinase expression inhibitor project, luminescence, kanamycin, BacTiterGlo, confirmation (AID 1900); type: functional, organism-based
Streptokinase A = biological target: T4, Streptokinase A (Streptococcus pyogenes serotype M1, UniProt P10520); assay: S. pyogenes streptokinase expression inhibitors, potency, dose response, plasminogen activation absorbance, OD405 (AID 1914); type: functional, Streptococcus pyogenes M1 GAS;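 also: secreted streptokinase activity via plasminogen activation per viability signal from cell pellet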
T4 sequence (P10520 whole entry): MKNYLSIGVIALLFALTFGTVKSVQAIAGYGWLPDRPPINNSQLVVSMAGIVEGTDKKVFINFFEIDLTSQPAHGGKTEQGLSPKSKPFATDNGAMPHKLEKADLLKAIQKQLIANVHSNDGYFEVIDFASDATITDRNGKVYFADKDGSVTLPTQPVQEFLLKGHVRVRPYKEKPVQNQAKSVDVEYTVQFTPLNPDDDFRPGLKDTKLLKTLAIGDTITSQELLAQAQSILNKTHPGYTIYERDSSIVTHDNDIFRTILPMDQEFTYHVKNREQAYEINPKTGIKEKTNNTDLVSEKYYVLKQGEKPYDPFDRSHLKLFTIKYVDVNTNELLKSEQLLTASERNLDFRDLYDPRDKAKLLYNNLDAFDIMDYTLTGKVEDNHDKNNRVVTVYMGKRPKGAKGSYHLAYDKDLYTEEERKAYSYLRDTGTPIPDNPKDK

[8] = biological target: Induced myeloid leukemia cell differentiation protein Mcl-1 (Homo sapiens, UniProt Q07820); type: functional
Chain of Induced myeloid leukemia cell differentiation protein Mcl-1 (Q07820 whole entry): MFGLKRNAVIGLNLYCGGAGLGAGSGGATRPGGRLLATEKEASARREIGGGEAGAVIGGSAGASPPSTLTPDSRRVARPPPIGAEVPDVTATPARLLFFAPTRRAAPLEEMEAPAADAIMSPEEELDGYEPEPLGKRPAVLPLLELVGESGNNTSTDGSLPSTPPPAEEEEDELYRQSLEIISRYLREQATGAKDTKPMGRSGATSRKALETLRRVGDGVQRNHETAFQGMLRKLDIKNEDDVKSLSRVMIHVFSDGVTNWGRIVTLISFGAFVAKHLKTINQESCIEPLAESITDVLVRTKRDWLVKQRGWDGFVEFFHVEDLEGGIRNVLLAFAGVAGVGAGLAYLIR

Streptococcus = assay: Group A Streptococcus viability loss, dose response, counter-screen for streptokinase expression inhibitor project, luminescence, BacTiterGlo (AID 1915); type: functional, organism-based;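 also: potency for reduction of bacterial viability or growth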
[9] = biological target: Eukaryotic translation initiation factor 4E (Mus musculus, UniProt P63073); assay: eIF4E–eIF4G protein interaction inhibitors, dose response, biochemical, TR-FRET (AID 855); type: functional;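 also: potency for disrupting eIF4E binding to eIF4GI seen as loss of FRET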
Chain of Eukaryotic translation initiation factor 4E (P63073 whole entry): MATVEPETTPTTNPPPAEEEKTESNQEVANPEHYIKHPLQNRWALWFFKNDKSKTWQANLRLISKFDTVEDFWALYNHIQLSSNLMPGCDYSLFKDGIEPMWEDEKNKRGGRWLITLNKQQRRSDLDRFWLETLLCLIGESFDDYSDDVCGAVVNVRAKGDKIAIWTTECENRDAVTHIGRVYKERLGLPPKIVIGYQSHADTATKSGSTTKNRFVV

Genome polyprotein = Genome polyprotein (dengue virus type 2, UniProt P29990); assay: Dengue-2 NS5 methyltransferase inhibitors, primary screen, biochemical, confirmation dose response (AID 588689); type: functional
Chain of Genome polyprotein (P29990 2492-3391 limits assumed): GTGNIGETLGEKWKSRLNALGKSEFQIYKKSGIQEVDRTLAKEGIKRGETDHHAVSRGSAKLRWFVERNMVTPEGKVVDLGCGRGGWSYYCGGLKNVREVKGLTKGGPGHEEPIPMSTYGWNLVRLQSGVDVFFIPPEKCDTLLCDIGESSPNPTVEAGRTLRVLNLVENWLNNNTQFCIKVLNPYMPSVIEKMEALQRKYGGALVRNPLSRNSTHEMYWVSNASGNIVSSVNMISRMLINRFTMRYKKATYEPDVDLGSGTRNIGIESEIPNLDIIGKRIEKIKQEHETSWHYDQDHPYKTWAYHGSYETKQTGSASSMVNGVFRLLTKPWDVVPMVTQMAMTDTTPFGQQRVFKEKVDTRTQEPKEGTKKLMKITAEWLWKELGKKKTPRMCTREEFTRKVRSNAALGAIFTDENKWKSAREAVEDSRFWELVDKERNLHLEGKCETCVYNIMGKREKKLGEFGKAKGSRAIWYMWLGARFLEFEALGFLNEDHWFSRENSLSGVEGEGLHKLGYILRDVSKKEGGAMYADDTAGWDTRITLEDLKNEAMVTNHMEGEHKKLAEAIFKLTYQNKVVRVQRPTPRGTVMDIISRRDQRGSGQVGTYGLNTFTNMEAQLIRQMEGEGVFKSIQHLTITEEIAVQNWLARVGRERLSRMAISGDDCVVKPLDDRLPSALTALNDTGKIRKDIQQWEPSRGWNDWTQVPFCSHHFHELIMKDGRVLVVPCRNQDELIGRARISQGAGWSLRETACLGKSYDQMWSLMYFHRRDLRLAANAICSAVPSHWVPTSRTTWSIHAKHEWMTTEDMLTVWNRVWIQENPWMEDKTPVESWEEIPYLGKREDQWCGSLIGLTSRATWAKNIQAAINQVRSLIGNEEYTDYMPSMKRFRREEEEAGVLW

[10] = biological target: T5, Small ubiquitin-related modifier 1 (Homo sapiens, UniProt P63165); assay: inhibitors of SUMO1 peptide binding, dose response, biochemical, fluorescence polarization, uHTS hits (AID 624382); type: functional; details: read-out: IC50_Mean
T5 sequence (P63165 whole entry): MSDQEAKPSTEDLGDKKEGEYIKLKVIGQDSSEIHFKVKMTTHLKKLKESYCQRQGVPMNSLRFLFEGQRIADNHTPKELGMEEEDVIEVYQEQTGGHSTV

[11] = biological target: T5, Small ubiquitin-related modifier 1; assay: inhibitors of SUMO1 partner interactions, dose response, biochemical, FRET (AID 624383); type: functional; details: read-out: IC50_Mean
P388/ADR = assay: cells; type: functional; details: Mus musculus
SN12K1 = assay: cells; type: functional; details: Homo sapiens
P388 = assay: cells; type: functional; details: Mus musculus

## O=C(NC(c1cccnc1)C(F)(F)F)c1cc(COc2ccc3c(c2)CCCC3)on1 (stereo unspecified)
INS1
  AC50: 3.48 µM (active)
Protein Wnt-3a
  IC50: 40.4 µM (inactive)

## Cc1ccnc(NC(=O)Nc2ccc3c(c2)OCO3)c1
Cells [1]
  IC50: > 29.9 µM (inactive)
[2]
  EC50: > 29.9 µM (inactive)
[3]
  IC50: > 29.9 µM (inactive)
Cells [4]
  EC50: > 29.9 µM (inactive)

## C(#Cc1ccccc1)C[N+]1(CC#Cc2ccccc2)CCCC1
Protein Wnt-3a
  IC50: 8.34 µM (active)

## O=C(Nc1nc2cc(Cl)ccc2s1)C1CCCN(S(=O)(=O)c2cccc3cccnc23)C1 (stereo unspecified)
Melanocortin receptor 4
  IC50: > 64.6 µM (inactive)
[5]
  IC50: > 64.6 µM (inactive)

## CCN1CCN(C2=C(NS(=O)(=O)c3ccccc3)C(=O)c3ccccc3C2=O)CC1
Vero
  CC50: 24.8 µM (active)
[6]
  IC50: 19.1 µM (active)
INS1
  AC50: 5.62 µM (active)

## CCN(c1ccc(OCC(=O)OCC(=O)c2c(N)n(C)c(=O)n(C)c2=O)cc1)S(=O)(=O)c1ccccc1
Melanocortin receptor 4
  IC50: > 7.18 µM (active)
[5]
  IC50: > 64.6 µM (inactive)

## Cc1cccc(CCNCc2cc3cc(C)cc(C)c3nc2O)c1
Cells [1]
  IC50: > 29.9 µM (inactive)
[2]
  EC50: 0.73 µM (active)
[3]
  IC50: 1.84 µM (active)
Cells [4]
  EC50: > 29.9 µM (inactive)

## c1ccc(COc2ccc(-c3cc4nc(NCCN5CCOCC5)ccn4n3)cc2)cc1
Melanocortin receptor 4
  IC50: 20 µM (inactive)
[5]
  IC50: > 64.6 µM (inactive)

## O=C(O)C1CCCCC1C(=O)NCCc1ccc(F)cc1 (stereo unspecified)
Cells [1]
  IC50: > 29.9 µM (inactive)
[2]
  EC50: 1.39 µM (active)
[3]
  IC50: 8.15 µM (active)
Cells [4]
  EC50: > 29.9 µM (inactive)

## CCN1C(=O)/C(=C\c2ccc(-c3ccc([N+](=O)[O-])cc3OC)o2)S/C1=N\c1cccc(C(=O)O)c1
Aminopeptidase N
  IC50: 2.2 µM (active)
[7]
  EC50: 3.17 µM (active)
Streptokinase A
  EC50: > 150 µM (not active)
[8]
  IC50: 6.7 µM (active)
Streptococcus
  EC50: 8.58 µM (active)
[9]
  IC50: 50 µM (inactive)
Vero
  CC50: > 40 µM (active)
Genome polyprotein
  IC50: 64.5 µM (active)
[10]
  IC50: > 66.6 µM (inactive)
[11]
  IC50: 25.8 µM (inactive)

## ClCCCN1CCN(CCCl)CC1
P388/ADR
  GI50: 27 µM (inactive)
SN12K1
  GI50: 109 µM (inactive)
P388
  GI50: 17.7 µM (inactive)

## C=C1C(=O)O[C@@H]2[C@H](O)[C@@H](C)[C@@H]3C=CC(=O)[C@@]3(C)[C@H](OC(=O)C=C(C)C)[C@H]12
P388/ADR
  GI50: 0.141 µM (active)
SN12K1
  GI50: 0.681 µM (active)
P388
  GI50: 0.194 µM (active)

## Nc1nc(=O)c2c([nH]1)NCC(CNc1ccc(C(=O)N[C@@H](CCC(=O)O)C(=O)O)cc1)N2C=O (stereo partly specified) [LEUCOVORIN CALCIUM]
P388/ADR
  GI50: > 124 µM (inactive)
SN12K1
  GI50: > 125 µM (inactive)
P388
  GI50: > 125 µM (inactive)

## CCCCCCCCCCCCCCCCCCOP(=O)([O-])OCC[N+](C)(C)C [OCTADECYLPHOSPHONOCHOLINE]
P388/ADR
  GI50: 11.1 µM (inactive)
SN12K1
  GI50: 13.7 µM (inactive)
P388
  GI50: 3.78 µM (inactive)
